Results on 17 compounds are retold here after patent publication US20100298299A1, “NON-PEPTIDE DERIVATIVES AS BRADYKININ B1 ANTAGONISTS” (priority 2007, published 2010).

The target of assay [1] is T1, human recombinant bradykinin B1 receptor (Homo sapiens, UniProt P46663).
T1 construct: purchased Euroscreen ES-091; host or cells: CHO cells
T1 sequence (P46663 1-353): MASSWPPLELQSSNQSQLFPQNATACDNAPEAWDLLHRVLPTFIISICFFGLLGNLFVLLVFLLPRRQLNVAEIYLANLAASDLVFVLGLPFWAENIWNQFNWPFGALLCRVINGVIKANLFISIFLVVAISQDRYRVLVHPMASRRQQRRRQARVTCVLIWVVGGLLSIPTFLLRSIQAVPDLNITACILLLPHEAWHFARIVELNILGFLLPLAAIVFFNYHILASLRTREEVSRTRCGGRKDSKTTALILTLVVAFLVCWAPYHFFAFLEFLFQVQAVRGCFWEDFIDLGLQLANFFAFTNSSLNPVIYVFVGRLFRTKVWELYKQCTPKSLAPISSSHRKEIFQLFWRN
Put plainly: Human recombinant bradykinin B1 receptor binding. How it is done: 1. Human Recombinant Bradykinin B1 Receptor Binding
Binding assays were carried out on human recombinant bradykinin) receptors (expressed in CHO cells) according to the Euroscreen Technical Data Sheet (Cat. No.: ES-091). 20 μg protein/tube was incubated with [3,4-prolyl-3,4-^3H(N)]-[Des-Arg^10] Kallidin as radioligand. Non specific binding was determined in the presence of 10 μM Lys-des-Arg^9-Bradykinin. The final incubation volume was 250 μl. Samples were incubated for 15 min. at 25° C. then were rapidly vacuum filtered through GF/B filters presoaked for at least 1 h in 0.5% PEI. Radioactivity was determined by liquid scintillation spectroscopy.

Assay [2] deals with T2, recombinant human B1 receptors (Homo sapiens, UniProt P46663).
T2 construct: host or cells: CHO (CHO-B1)
T2 sequence (P46663 1-353): T1 sequence (P46663 1-353)
The assay can be described thus: Functional assay: antagonist potency by cytosolic calcium measurement in CHO-B1 cells. The format is cell-based. Here is the method: Assessment of Antagonist Potency at B1 and B2 Receptors In Vitro by Measurement of Cytosolic Calcium Ion Concentration with a Plate Reader Fluorimeter in Cells Expressing Recombinant Human B1 or B2 Receptors
Chinese hamster ovary (CHO) cells stably expressing recombinant human B1 (CHO-B1, Euroscreen) or B2 (CHO-B2, Perkin-Elmer) receptors were cultured in Dulbecco's Modified Eagle's Medium (DMEM) containing 10% Fetal Calf Serum (FCS), 100 U/ml penicillin, 0.1 mg/ml streptomycin, 0.25 μg/ml amphotericin B, 1% Minimum Essential Medium Eagle (MEM), non essential amino acid solution, 600 μg/ml G418, 1% pyruvate (for the B2 cell line). Cells were kept at 37° C. in a humidified incubator in an atmosphere of 5% CO2/95% air and were passaged 1:4 three times a week. Cells were plated at 1.5−2.5×10^4 cell/well on standard 96-well microplates, measurements of cytosolic calcium ion concentration ([Ca^2+]i) were carried out 1-2 days after cell plating.
Measurements of [Ca^2+]i were carried out on CHO-B1 and CHO-B2 cells stably expressing human B1 and B2 receptors, respectively. Cells were grown in standard 96-well microplates and before the measurement were loaded with a fluorescent Ca^2+-sensitive dye, fluo-4/AM (2 μM): after removing the culture medium the dye was added to the cells (dissolved in assay buffer: 145 mM NaCl, 5 mM KCl, 2 mM MgCl2, 2 mM CaCl2, 10 mM HEPES, 20 mM D-glucose, 2 mM probenecid, 100 μl/well) and cells were incubated at 37° C. in a humidified incubator in an atmosphere of 5% CO2/95% air for 40-120 min. To stop dye loading cells were washed twice with assay buffer. After washing, various concentrations of the test compounds (diluted in extracellular medium from a DMSO stock solution, final DMSO concentration was <0.1%) or buffer were added to each well depending on the experimental setup. After incubation at 37° C. for 20-25 min. baseline and agonist-evoked changes of [Ca^2+]i were measured column by column with a plate reader fluorimeter (Fluoroskan Ascent, Labsystems). Excitation and detection of emission was carried out from the bottom of the plate. Filters used for Fluo-4: excitation filter—485 nm, emission filter—538 nm. The whole measurement process was performed at 37° C. and was controlled by custom software. Inhibitory potency of the test compounds was assessed by measuring the reduction in the agonist-evoked [Ca^2+]i-elevation in the presence of different concentrations of the compounds. The agonists were LysDABK for CHO-B1, and bradykinin for CHO-B2 cells. Agonists were applied at an EC80 concentration, the EC80-values were derived from daily determined dose-response curves. Fluorescence data were expressed as ΔF/F (fluorescence change normalized to baseline). All treatments on a single plate were measured in multiple wells. Data from all wells with the same treatment were averaged and the average values were used for analysis. Inhibitory potency of a compound at a single concentration point was expressed as percent inhibition of the control agonist response. Sigmoidal concentration-inhibition curves were fitted to the data (derived from at least three independent experiments) and IC50-values were determined as the concentration that produces half of the maximal inhibition caused by the compound.

[3] abbreviates: CHO cell membranes, [3H]-[Des-Arg10] Kallidin radioligand, read-out: B1 binding.
[4] abbreviates: CHO-B1 cells, inhibition of LysDABK (EC80)-evoked [Ca2+]i elevation, read-out: B1 func.
Where [5] appears, read: reference compounds, binding test, read-out: Ki.
Where [6] appears, read: reference compounds, functional test, read-out: IC50.

The structures appear in SMILES notation. Where a name gives a salt, the structure may show the parent alone. Read-outs that look alike come from different tables or passages of the source.

In the case of `CN(C)CCCN1CCN(C(=O)CNC(=O)c2ccc(S(=O)(=O)Nc3ccccc3Sc3ccccc3)cc2)CC1` [Example 6, N-{2-[4-(3-Dimethylamino-propyl)-piperazin-1-yl]-2-oxo-ethyl}-4-(2-phenylsulfanyl-phenylsulfamoyl)-benzamide], in assay [1] (setting [3]), the Ki was in the range of 20 to 100 nM. Moreover, the IC50 in assay [2] (setting [4]) is 20 to 100 nM.

With `O=C(CNC(=O)c1ccc(S(=O)(=O)Nc2ccccc2Sc2ccccc2)cc1)NCC1CCNCC1` [Example 39, 4-(2-Phenylsulfanyl-phenylsulfamoyl)-N-{[(piperidin-4-ylmethyl)-carbamoyl]-methyl}-benzamide hydrochloride], in assay [1] (setting [3]), the Ki was less than 20 nM. Besides, in assay [2] (setting [4]), the IC50 was less than 20 nM.

On to `O=C(N[C@H](Cc1ccc(O)cc1)C(=O)N1CCC(CO)CC1)c1ccc(S(=O)(=O)Nc2ccccc2Oc2ccccc2)cc1` [Example 30, (R)—N-[1-(4-Hydroxy-benzyl)-2-(4-hydroxymethyl-piperidin-1-yl)-2-oxo-ethyl]-4-(2-phenoxy-phenylsulfamoyl)-benzamide], for which the Ki in assay [1] (setting [3]) was less than 20 nM. Further, the IC50 in assay [2] (setting [4]) is less than 20 nM.

For the compound `O=C(N[C@H](CO)C(=O)N1CCC(CCN2CCCC2)CC1)c1ccc(S(=O)(=O)Nc2ccccc2Oc2ccccc2)cc1` [Example 27, (R)—N-{1-Hydroxymethyl-2-oxo-2-[4-(2-pyrrolidin-1-yl-ethyl)-piperidin-1-yl]-ethyl}-4-(2-phenoxy-phenylsulfamoyl)-benzamide], the Ki in assay [1] (setting [3]) was less than 20 nM. Further, the IC50 in assay [2] (setting [4]) is less than 20 nM.

As for `O=C(N[C@H](Cc1ccc(O)cc1)C(=O)N1CCC(CCN2CCCC2)CC1)c1ccc(S(=O)(=O)Nc2ccccc2Oc2ccccc2)cc1` [Example 31, (R)—N-{1-(4-Hydroxy-benzyl)-2-oxo-2-[4-(2-pyrrolidin-1-yl-ethyl)-piperidin-1-yl]-ethyl}-4-(2-phenoxy-phenylsulfamoyl)-benzamide], in assay [1] (setting [3]), the Ki was less than 20 nM. For the same compound, the IC50 in assay [2] (setting [4]) is less than 20 nM.

Consider `O=C(NCC(=O)N1CCC(N2CCCC2)CC1)c1ccc(S(=O)(=O)Nc2ccccc2Sc2ccccc2)cc1` [Example 3, N-[2-Oxo-2-(4-pyrrolidin-1-yl-piperidin-1-yl)-ethyl]-4-(2-phenylsulfanyl-phenylsulfamoyl)-benzamide], for which the Ki in assay [1] (setting [3]) is less than 20 nM. Further, in assay [2] (setting [4]), the IC50 is less than 20 nM.

For `CN(C)CCN1CCN(C(=O)CNC(=O)c2ccc(S(=O)(=O)Nc3ccccc3Sc3ccccc3)cc2)CC1` [Example 4, N-{2-[4-(2-Dimethylamino-ethyl)-piperazin-1-yl]-2-oxo-ethyl}-4-(2-phenylsulfanyl-phenylsulfamoyl)-benzamide], in assay [1] (setting [3]), the Ki lay within 20 to 100 nM. The IC50 in assay [2] (setting [4]) lay in the range of 20 to 100 nM.

With `O=C(N[C@@H](Cc1ccc(O)cc1)C(=O)N1CCC(CCO)CC1)c1ccc(S(=O)(=O)Nc2ccccc2Oc2ccccc2)cc1` [Example 35, (S)—N-{1-(4-Hydroxy-benzyl)-2-[4-(2-hydroxy-ethyl)-piperidin-1-yl]-2-oxo-ethyl}-4-(2-phenoxy-phenylsulfamoyl)-benzamide], in assay [1] (setting [3]), the Ki is less than 20 nM. The IC50 in assay [2] (setting [4]) is less than 20 nM.

On to `O=C(NCC(=O)N1CCN(CCN2CCOCC2)CC1)c1ccc(S(=O)(=O)Nc2ccccc2Sc2ccccc2)cc1` [Example 9, N-{2-[4-(2-Morpholin-4-yl-ethyl)-piperazin-1-yl]-2-oxo-ethyl}-4-(2-phenylsulfanyl-phenylsulfamoyl)-benzamide], for which the Ki in assay [1] (setting [3]) was 20 to 100 nM. Besides, the IC50 in assay [2] (setting [4]) fell in the range of 20 to 100 nM.

As to `CN1CCN(C(=O)C2CCN(S(=O)(=O)c3ccc(NCC(c4ccccc4)c4ccccc4)c(C(=O)N4CCOCC4)c3)CC2)CC1` [NVP-SAA164, 4-{2-[(2,2-diphenyl-ethyl)-amino]-5-{4-[4-[(4-methyl-1-piperazinyl)-carbonyl]-1-piperidinyl]-sulfonyl}-benzoyl}-morfoline, reference compound], the Ki in assay [1] (setting [5]) amounted to 8 nM. Further, in assay [2] (setting [6]), the IC50 came out at 33 nM.

`O=C(NCC(=O)N1CCCN(CCCN2CCCC2)CC1)c1ccc(S(=O)(=O)Nc2ccccc2Sc2ccccc2)cc1` [Example 7, N-{2-Oxo-2-[4-(3-pyrrolidin-1-yl-propyl)-[1,4]diazepan-1-yl]-ethyl}-4-(2-phenylsulfanyl-phenylsulfamoyl)-benzamide]: in assay [1] (setting [3]), the Ki was in the range of 20 to 100 nM. In assay [2] (setting [4]), the IC50 was in the range of 20 to 100 nM.

Consider `O=C(NCC(=O)N1CCC(CCN2CCCC2)CC1)c1ccc(S(=O)(=O)Nc2ccccc2Sc2ccccc2)cc1` [Example 2, N-{2-oxo-2-[4-(2-pyrrolidin-1-yl-ethyl)-piperidin-1-yl]-ethyl}-4-(2-phenylsulfanyl-Phenylsulfamoyl)-benzamide], for which the Ki in assay [1] (setting [3]) was less than 20 nM. Besides, the IC50 in assay [2] (setting [4]) was less than 20 nM.

In the case of `C[C@H](NC(=O)c1ccc(S(=O)(=O)Nc2ccccc2Oc2ccccc2)cc1)C(=O)N1CCC(CCN2CCCC2)CC1` [Example 26, (S)—N-{1-Methyl-2-oxo-2-[4-(2-pyrrolidin-1-yl-ethyl)-piperidin-1-yl]-ethyl}-4-(2-phenoxy-phenylsulfamoyl)-benzamide], the Ki in assay [1] (setting [3]) is less than 20 nM. Besides, the IC50 in assay [2] (setting [4]) is less than 20 nM.

As to `O=C(N[C@@H](Cc1ccc(O)cc1)C(=O)N1CCC(CCN2CCCC2)CC1)c1ccc(S(=O)(=O)Nc2ccccc2Oc2ccccc2)cc1` [Example 32, (S)—N-{1-(4-Hydroxy-benzyl)-2-oxo-2-[4-(2-pyrrolidin-1-yl-ethyl)-piperidin-1-yl]-ethyl}-4-(2-phenoxy-phenylsulfamoyl)-benzamide], the Ki in assay [1] (setting [3]) was less than 20 nM. Also, in assay [2] (setting [4]), the IC50 was less than 20 nM.

In the case of `CCCN1C(=O)[C@H](NC(=O)Nc2ccc(N3CCC(N4CCCCC4)CC3)cc2)N=C(c2ccc(C)cc2)c2ccccc21` [compound 3, N-[4-(4′-bipiperidin)-1′-ylphenyl]-N′-[(3R)-2,3-dihydro-5-(4-methyl-phenyl)-2-oxo-1-propyl-1H-1,4-benzodiazepin-3-yl]-urea, reference compound], the Ki in assay [1] (setting [5]) turned out to be 13.4 nM. In assay [2] (setting [6]), the IC50 is 64.5 nM.

For the compound `O=C(N[C@@H](Cc1ccc(O)cc1)C(=O)N1CCC(N2CCCC2)CC1)c1ccc(S(=O)(=O)Nc2ccccc2Oc2ccccc2)cc1` [Example 33, (S)—N-[1-(4-Hydroxy-benzyl)-2-oxo-2-(4-pyrrolidin-1-yl-piperidin-1-yl)-ethyl]-4-(2-phenoxy-phenylsulfamoyl)-benzamide], in assay [1] (setting [3]), the Ki is less than 20 nM. Besides, the IC50 in assay [2] (setting [4]) is less than 20 nM.

Regarding `CN1CCCC(CN2CCN(C(=O)CNC(=O)c3ccc(S(=O)(=O)Nc4ccccc4Sc4ccccc4)cc3)CC2)C1` (stereo not shown) [Example 8, N-{2-[4-(1-Methyl-piperidin-3-ylmethyl)-piperazin-1-yl]-2-oxo-ethyl}-4-(2-phenylsulfanyl-phenylsulfamoyl)-benzamide], the Ki in assay [1] (setting [3]) is 20 to 100 nM. The IC50 in assay [2] (setting [4]) is 20 to 100 nM.
